According to patent US20190062697A1, “Cell Differentiation Marker and its Uses” (Centre National De La Recherche Scientifique (CNRS), priority 2013, published 2019):

How the values were obtained:
[1] = system: ES cells; assay: BrdU pulse-labelling / FACS of synchronized ES cells UV-irradiated in G1 (S-phase entry); assay type: cell-based, mouse; conditions: 24 hours knockdown, UV light in G1, collected 2 hours after UV
Procedure: FIG. 4F is a histogram showing Cdc25A downregulation in G1 delay upon DNA damage. Control (a.) and Cdc25A (b.) RNAi-transfected cells were released from nocodazole and exposed to UV light in G1 (t=2) and collected 2 hours (t=4) after UV-(+) or mock-irradiation (−). Prior to collection cells were pulse-labelled with BrdU. Fraction (expressed as %) of diploid BrdU negative cells is plotted (data are represented as mean±SD). Statistical differences is indicated with a single asterisk (*) for P<0.05. Y-axis represents the percentage of cells in G1.
ES cells were arrested in prometaphase by nocodazole (Sigma) for 4-8 hours. After mitotic-shake off cells were washed 3 times in ice-cold PBS and dissolved in full ES growth medium. Cells were incubated in a humidified atmosphere of 5% CO2 at 37° C. for 45 minutes and placed at 30° C. for 1 hour to reduce S phase entry. Cells were mock- or UV-irradiated (6 J/m2) and incubated at 37° C. prior collection. To synchronise NIH-3t3 cells in G0 cells were grown to confluence and incubated for 2-3 days. Next, cells were washed, resuspended and split at 30% confluency. […]
Single-cell suspensions were prepared by trypsinisation and washed once in PBS. […] The BrdU content was determined by reaction with a fluorescein isothiocyanate (FITC)-conjugated anti-BrdU antibody (BD Biosciences). Cells were analyzed with a FACScalibur flow cytometer using CellQuestPro software.

[2] = system: CDK2^Y15P; assay: Western blot of inhibitory CDK2 Tyr15 phosphorylation upon DNA damage in G1; assay type: cell-based, mouse; conditions: 24 hours knockdown, UV light in G1
Description: FIG. 4E is a western blot showing the downregulation of Cdc25A expression by RNAi resulting in increased inhibitory CDK2Tyr15 phosphorylation upon DNA damage in G1. Control (a.) and Cdc25A (b.) RNAi-transfected cells were released from nocodazole and exposed (+) to UV-light in G1. Samples were collected at the indicated times and analyzed by western blotting with the indicated antibodies: Cdc25A (#1), Cdk2^Y15P (#2), Cyclin B1 (#3), Chk1^S345P (#4), Chk1 (#5) and β-actin (#6; as control).
Western blot signals of FIG. 4E were quantified by densitometry scanning and expressed as relative optical density (ROD) compared to Chk1 signal as loading control. Black bars represent cells treated with Cdc25A RNAi (a.) and white bars represent cells treated with control RNAi (b.).
Cells were rinsed once in PBS and then incubated with ice cold lysis buffer (50 mM Tris-HCl pH 7.4, 100 mM NaCl, 50 mM NaF, 5 mM EDTA, 40 mM β-glycero-phosphate, 1% Triton X-100 and protease inhibitors) for 30 min on ice before scraping. Whole cell extracts were clarified by centrifugation at 12000 rcf for 10 min at 4° C. Protein concentration of the clarified lysates was estimated using BCA method (Pierce). Equal amount of protein was used for western blot analysis. All antibodies were incubated overnight at 4° C. in phosphate-buffered saline (PBS) containing 1% BSA and 0.1% Tween (Sigma). […]

[3] = system: ES cells; assay: Clonogenic assay of ES cells with alkaline phosphatase (AP) staining; assay type: cell-based, mouse; conditions: prolonged (7 days) RNAi knockdown, in the presence of LIF
Procedure: FIG. 12M is a histogram showing a clonogenic assay of ES cells upon prolonged control (1), Dub3 (2) or Cdc25a (3) targeting RNAi sequence. Cells were plated at clonal density in LIF-containing serum and stained for AP after 7 days. Columns show the percentage of alkaline phosphatase (AP) positive (dark grey) or negative (light grey) colonies. At least 150 colonies were scored.

[4] = system: Cdc25A mRNA; assay: qPCR quantification of Cdc25A mRNA in ES cells; assay type: cell-based, mouse
Procedure: FIG. 6I is a histogram showing qPCR quantification of Cdc25A normalised to multiple reference genes expressed as percentage of control. ES cells were transfected with control (Luc), β-TrCP (1), Cdh1 (2) or Dub3 (3) RNAi sequences and collected 48 hours after transfection. Bars represent the mean±SD of triplicate observations.
FIG. 7C is a histogram showing the qPCR quantification of Cdc25A mRNA normalised to multiple reference genes. ES cells were transfected with control (1), Dub3 (2) or Cdc25A (3) RNAi sequences.
(§1) FIG. 9A is a graph showing qPCR quantification of Cdc25A (curves with black squares) and Dub3 (curves with triangles) mRNA in ES cells treated with increasing concentration of the selective Esrrb and Esrrg agonist DY131 (indicated doses in μM) for 16 hours. Bars represent the fold induction±SD of triplicate observations.
(§2) Briefly, ES cells were maintained in Glasgow MEM BHK-21 (GMEM) supplemented with 10% fetal bovine serum, non-essential amino acids, L-glutamine, sodium pyruvate, β-mercapthethanol. NIH-3t3 cells were maintained in Dulbecco's modified eagle's medium (DMEM) supplemented with 10% fetal bovine serum, 2 mM glutamine and antibiotics. […]
(§3) Total RNA was isolated with TRIzol reagent (Invitrogen). […] Quantitative PCRs were performed using Lightcycler SYBR Green I Master mix (Roche) on Lightcycler apparatus (Roche). […]

[5] = system: Cdc25A; assay: Western blot analysis of Cdc25A protein levels in ES cells; assay type: cell-based, mouse
Procedure: Cells were UV-irradiated and incubated with cycloheximide (Cx) in absence or presence of Chk1 inhibitor SB218078, collected at the indicated times (min) and analyzed by western blotting. Cdc25A expression (#1) and β-actin (#2; as control) are shown.
FIG. 6J is a western blot analysis of Cdc25A protein expression in Luciferase (a.), β-TrCP (b.) and Cdh1 (c.) RNAi-transfected cells. Expression of Cdc25A (#1) and β-actin (#2) is shown.
Expression of CDC25A (#1), Cdc25C (#2) and β-actin (#3, as control) is represented.
FIG. 9B is a western blot analysis of Cdc25A protein levels in ES cells treated with increasing concentrations (in μM) of the DY131 agonist for 16 hours. Cdc25A (#1) and β-actin (#2, as control) protein expression is represented.
Cells were rinsed once in PBS and then incubated with ice cold lysis buffer (50 mM Tris-HCl pH 7.4, 100 mM NaCl, 50 mM NaF, 5 mM EDTA, 40 mM β-glycero-phosphate, 1% Triton X-100 and protease inhibitors) for 30 min on ice before scraping. Whole cell extracts were clarified by centrifugation at 12000 rcf for 10 min at 4° C. Protein concentration of the clarified lysates was estimated using BCA method (Pierce). Equal amount of protein was used for western blot analysis. All antibodies were incubated overnight at 4° C. in phosphate-buffered saline (PBS) containing 1% BSA and 0.1% Tween (Sigma). Antibodies used from Cell Signaling: Chk1S345P (2341), p53S15P (9284), γH2AX (2577), CDK2Y15P (9111), Myc-Tag (2276); Active caspase 3 (9961); Abcam: DNA polα (ab31777), H3 (ab1791), CDK2 (ab6538), PSTAIR (ab10345), GFP (ab290), MCM2 (ab4461); Suds3 (ab3740) Santa Cruz: Cdc45 (sc-20685), Cdc25A (sc-7389), Chk1 (sc-8408), Cyclin B1 (sc-245), Cdc25C (sc-327), Cdc25B (sc-65504), p21 (sc-6246), RhoA (sc-418); anti-goat IgG-HRP (sc-2020) Sigma: (PC10), β-actin (A1978), Cyclin A (C7410), Anti-Flag M2 (F1804), Oct4 (Chemicon, AB3209), and Millipore, Nestin (Ab353), H3S10P (Millipore 09-797). Wee1 (kindly provided by T. Lorca, CRBM Montpellier).

[6] = system: Dub3 mRNA; assay: qPCR quantification of Dub3 mRNA in ES cells; assay type: cell-based, mouse; conditions: increasing dose of DY131, 16 hours
Procedure: as §1
FIG. 9C is a histogram showing qPCR quantification of Esrrb (1) and Dub3 (2) mRNA normalised to multiple reference genes expressed as percentage of control in presence of DY131. ES cells were transfected with control (Crtl) RNAi (white bars) or Esrrb specific RNAi sequence (black bars). Data are expressed as mean±SD (error bars) of multiple observations.
as §2, with “antibiotics. The viruses-containing conditioned medium was incubated on exponentially growing NIH-3t3 cells for 24 hours in the presence of polybrene ([…]).” for “antibiotics.”
as §3

[7] = system: deubiquitylating enzymes (DUBs); conditions: cited from earlier work
[8] = system: ES cells; assay: FACS cell cycle analysis of asynchronously growing ES cells treated with roscovitine; assay type: cell-based, mouse; conditions: increasing concentration of roscovitine
Procedure: FIG. 5C is FACS analysis of asynchronously growing ES cells treated with increasing concentration of Roscovitine (in μM; Z-axis). Roscovitine is a potent and selective inhibitor of cyclin-dependent kinases, […]. X-axis represents DNA content (expressed in propidium iodide fluorescence) and Y-axis represents the number of cells.
Single-cell suspensions were prepared by trypsinisation and washed once in PBS. Cells were fixed in ice-cold 70% ethanol (−20° C.) and stored at −20° C. overnight. Following RNAse A treatment, total DNA was stained with propidium iodide (25 μg/ml). For BrdU uptake analysis, ES cells and NIH-3t3 cells were grown in the presence of 10 μM BrdU for respectively 10 and 30 minutes. The BrdU content was determined by reaction with a fluorescein isothiocyanate (FITC)-conjugated anti-BrdU antibody (BD Biosciences). Cells were analyzed with a FACScalibur flow cytometer using CellQuestPro software.

[9] = RNAi-mediated knockdown in ES cells
[10] = increasing dose of DY131, 16 hours, ES cells

**Q.** With “5′-GAAAUUUCCCUGACGAGAA-3′ (listed as RNA, chemistry not given here) [Cdc25A RNAi]” as the compound, how does the “BrdU-negative cells with 2N DNA content” value [1] read?
**A.** significant, UV-dependent, increase of BrdU-negative cells with 2N DNA content

**Q.** And the “CDK2^Y15P levels” value [2]?
**A.** increased CDK2^Y15P levels

**Q.** What about the “alkaline phosphatase (AP)-negative colonies” value [3] of the same compound?
**A.** A very similar result was also observed

**Q.** Which results are given for “5′-GGCUGUAAGAUGUGUGCUA-3′ (listed as RNA, chemistry not given here) [Dub3 RNAi]”?
**A.** Cdc25A mRNA level [4, 9]: did not affect Cdc25A mRNA level; reduction of Cdc25A protein abundance [5, 9]: 3 fold; alkaline phosphatase (AP)-negative colonies [3]: increase of alkaline phosphatase (AP)-negative colonies

**Q.** Which Dub3 gene expression [6] does the source give for CCN(CC)c1ccc(/C=N/NC(=O)c2ccc(O)cc2)cc1 [DY131] here?
**A.** boosted Dub3 gene expression

**Q.** What about the Cdc25A transcript level [4, 10] of the same compound?
**A.** without affecting Cdc25A transcript level

**Q.** What about the Cdc25A protein abundance [5, 10] of the same compound?
**A.** increased Cdc25A protein abundance

**Q.** Which “accumulation of polyubiquitylated proteins in cells” value [7] does the source give for N#CSc1cc(SC#N)c(N)nc1N [PR-619] here?
**A.** induces the accumulation of polyubiquitylated proteins in cells

**Q.** And the proteasome activity [7]?
**A.** without directly affecting proteasome activity

**Q.** For O=C1NC(=O)c2c1c1c3ccccc3n3c1c1c2c2ccccc2n1C1CCC3O1 [SB218078], which “Cdc25A destruction upon DNA damage” value ([5]; UV-irradiated ES cells with cycloheximide, absence or presence of Chk1 inhibitor) is on record?
**A.** rapid Cdc25A destruction upon DNA damage is Chk1-dependent

**Q.** Which results are given for CC[C@H](CO)Nc1nc(NCc2ccccc2)c2ncn(C(C)C)c2n1 [roscovitine]?
**A.** G1 cells [8]: dose-dependent increase of G1 cells; fraction of S phase cells [8]: reduced the fraction of S phase cells
